Data: patent US20160304970A1, “GENE BIOMARKER TO DIAGNOSE METASTIC LIVER CANCER AND METHODS FOR TARGETING THE SAME” (University of Southern California, priority 2015, published 2016)

What was measured:
[1] = test system: CD133 (+) Huh7 cells; test: Anchorage-independent growth assay in soft agar; format: cell-based, human; settings: retinoic acid 5 μg/ml, SAHA 0.5 μg/ml; 2 weeks
Experimental: Freshly sorted CD133 (+)/(−) Huh7 cells were mixed with 0.35% agarose containing 1000 cells per well in culture medium with retinoic acid (5 μg/ml), SAHA (0.5 μg/ml), or a combination of both. After 2 weeks, the colony numbers were counted.

[2] = test system: patient-derived TICs; test: Subcutaneous xenograft of patient-derived TICs in NSG mice; format: in vivo, mouse; settings: no SAHA, i.p.
Experimental: To establish prognostic biomarkers for the best combination chemotherapy, five different patient-derived TICs were tested for responses as xenografts in NSG mice for the best combination chemotherapy based on mutation/transcriptome subtypes. Anti-tumorigenic ability by ATRA+SAHA targeting TICs encapsulated with SAHA was validated (Table 3). […] As placebo treatment, solvent (DMSO) in an equal total volume (0.2 ml/mouse) was injected. Tumor growth kinetics was studied. Combination of ATRA with SAHA further inhibited the self-renewal abilities of TICs in vivo (FIG. 17E).

[3] = test system: TICs; test: Annexin V-PI staining and caspase activity analysis; format: cell-based; settings: 6 and 12 hours; p<0.05
Experimental: Annexin V staining was performed according to the manufacturer's instructions (A35110, Invitrogen). In brief, after drug treatment, the cells were washed twice with ice-cold phosphate-buffered saline (PBS) and detached by trypsin/EDTA. The cells were then incubated with 5 μl of Annexin V-APC in a 100 μl of cell suspension at room temperature for 15 minutes. After incubation, the cells were mixed with propidium iodide solution and analyzed by flow cytometry.
The caspase activity assay was performed according to the manufacturer's instructions (G8090, G8200, and G8210, Promega). In brief, 10,000 cells were plated into each well of a 96-well plate. After the cells attached, the drugs (5 μg/ml of ATRA and 0.5 μg/ml of SAHA) were added to each well and incubated for 6, 12, 16, and 24 hours. After incubation, the Caspase-Glo® substrate reagent was added to each well followed by incubation for 30 minutes. After incubation, the luminescence signal was measured with a luminometer.

Structure (SMILES): CC1=C(/C=C/C(C)=C/C=C/C(C)=C/C(=O)O)C(C)(C)CCC1 [ATRA, all-trans retinoic acid]
- reduction of colony numbers, anchorage independent growth in soft agar [1]: 50%
- anti-tumorigenic ability, % (animals/total) ([2]; ATRA 100 mg/m^2/day): 22% (7/32)
- anti-tumorigenic ability, % (animals/total) ([2]; ATRA 150 mg/m^2/day): 19% (6/32)
- caspase-8 (extrinsic) and caspase-9 (intrinsic) pathway activity [3]: induced both
